Laboratory results taken from patent US20220211783A1, “GMCI AND DDRI COMBINATION THERAPY FOR TREATING CANCER” (Candel Therapeutics, Inc., priority 2019, published 2022).

What was measured:
[1] = test system: lung cell line e.g., A549, A427, H2030; experiment: Cell viability assay (vital dye such as Presto Blue, fluorescence) of GMCI, AZD1775 and their combination; type: cell-based
[2] = test system: lung cancer cells; experiment: Double-stranded DNA breaks by H2AX-Ser139 staining, confocal microscopy; type: cell-based; settings: 6 hours after addition of AZD1775 (IC50 concentration) and/or GCV

With C=CCn1c(=O)c2cnc(Nc3ccc(N4CCN(C)CC4)cc3)nc2n1-c1cccc(C(C)(C)O)n1 [AZD1775] the “cell viability (fluorescence normalized to samples that received no treatment)” value ([1]; Day 4, AZD1775 at its IC50 concentration or half of its IC50 concentration, GMCI = AdV-tk 100 MOI + ganciclovir 5 μg/ml) was “cytotoxic activity”, the EC50 ([1]; stated as the concentration used in the lung cell line, half the IC50 given as 40 nM, read-out: EC50 concentration of the drug) was 80 nM and the “Double-stranded DNA breaks” value [2] was “occur”. For the same molecule, the “H2AX(Ser139) staining” value ([2]; versus untreated cells) was “large increase in H2AX staining”.
